Assay results reported in PMC9555310, “Novel inhibitors and activity-based probes targeting serine proteases” (Frontiers in Chemistry, 2022).
Where “and” joins values, the source holds several entries; their conditions need not be identical. Equal values may be shown once.

Assays:
[1] = biological target: T1, neutrophil elastase (NE) (Homo sapiens, UniProt P08246); test: Irreversible inhibition kinetics of neutrophil elastase (fluorogenic substrate progress curves); assay type: biochemical
T1 construct: purchased Calbiochem
T1 sequence (P08246 30-267): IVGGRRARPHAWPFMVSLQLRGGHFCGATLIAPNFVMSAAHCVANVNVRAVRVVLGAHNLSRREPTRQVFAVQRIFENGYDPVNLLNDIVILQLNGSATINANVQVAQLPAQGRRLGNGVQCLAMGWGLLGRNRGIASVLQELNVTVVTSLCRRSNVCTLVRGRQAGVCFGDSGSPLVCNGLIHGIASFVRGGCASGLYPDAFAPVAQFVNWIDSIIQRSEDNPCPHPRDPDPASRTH
Experimental: A range of inhibitor concentrations were prepared from a 10 mM stock solution of the test compounds (NAP533, NAP559, NAP800, NAP830, NAP849, and NAP962) in N, N-dimethylformamide (DMF). Recombinant protease activities were assayed using the cognate fluorogenic substrates as follows: trypsin (Z-Gly-Gly-Arg-NHMec), thrombin (Boc-Val-Pro-Arg-NHMec), plasmin (Boc-Val-Leu-Lys-NHMec), human neutrophil elastase (MeO-Succinyl-Ala-Ala-Pro-Val-NHMec), and chymotrypsin (Succinyl-Ala-Ala-Pro-Phe-NHMec). Each substrate was used at a final concentration of 50 μM, in the appropriate buffer for each protease. All inhibition assays were performed in microtiter plates maintained at 37°C in a final volume of 100 μL. The reaction was initiated by the addition of each protease (approx. 0.01 μg/well) and the rate of substrate hydrolysis was recorded continuously at 37°C, over a 60 min period, by measuring the rate of increase in fluorescence (at λex 360 nm, λem 480 nm) using a FLUOstar Optima microplate reader (BMG Labtech).
The resultant inhibition progress curves obtained for each inhibitor were analyzed by the kinetic models developed by [Tian and Tsou (1982)] and [Walker and Elmore (1984)], for irreversible inhibitors, with curve fitting being achieved using GraFit (Erithacus Software), as described previously ([Ferguson et al., 2016]).
FIGURE 4 Progress curves for (A), chymotrypsin-catalysed hydrolysis of Succinyl-Ala-Ala-Pro-Phe-NHMec, in the presence of varying concentrations of NAP849. (B), NE-catalysed hydrolysis of MeO-succinyl-Ala-Ala-Pro-Val-NHMec, in the presence of varying concentrations of NAP800. (C) Trypsin-catalysed of Z-Gly-Gly-Arg-NHMec, in the presence of NAP830. (D) Plasmin-catalysed hydrolysis of Boc-Val-Leu-Lys-NHMec, in the presence of varying concentrations of NAP962. Assays were carried out in PBS, pH 7.4, at 37°C, in the presence of a range of inhibitor concentrations (0.25–50 μM) and a fixed concentration (50 μM) of the appropriate substrate for each protease.
The “product progress” curves for substrate hydrolysis in the presence of an inhibitor (Figure 4) are indicative of the action of irreversible inhibitors operating through the kinetic scheme illustrated in Figure 6. In this scheme, the formation of the reversible enzyme–inhibitor complex (EI) is zcharacterized by the inhibitor constant K i. This is converted into the covalent/irreversible complex (E-I) characterized by a first-order rate constant k 3. The overall second-order rate constant for the inactivation of E by I is given by the ratio k 3/K i ([Walker and Elmore, 1984]; [Tsou, 1988]). […]
Protease inactivation by each of the compounds under study was evaluated using a fluorogenic enzyme assays. […]

[2] = biological target: T2, NE in CF Sol samples (Homo sapiens, UniProt P08246); test: Fluorogenic substrate assay of elastase-like activity in CF Sol; assay type: biochemical; conditions: 50 μM; CF Sol sample 26w at 2.5% (v/v); PBS pH 7.4, 37°C; 60 min
T2 construct: from tissue; host or cells: Cystic Fibrosis (CF) Sol samples 26w and 41w from patients
T2 sequence (P08246 30-267): T1 sequence (P08246 30-267)
Experimental: FIGURE 7 Activity Based Profiling of serine proteases by peptide N-Alkyl glycine carbamates. (A,B) record the results for the incubation of NE with NAP800 and chymotrypsin with NAP849. NE and Chymotrypsin were treated (±) with NAP800 and NAP849, respectively (± pre-heat inactivation at 95°C, for 10 min), for 30 min, at 37°C. (C) Determination of NE levels in CF samples using fluorogenic substrate assay. NE assays were carried out in PBS, pH 7.4, at 37°C. CF Sol (sample 26w) was used at a final concentration of 2.5% (v/v), and the level of NE contained therein was measured using Succinyl-Ala-Ala-Pro-Val-NHMec (50 μM), in the absence (-- o --) and presence (-- o --) of NAP800 (50 μM). (D) Activity based profiling of CF Sol using NAP800. CF Sol samples 26w and 41w were treated (+) with 50 μM NAP800 (+ pre-heat inactivation at 95°C, for 10 min), for 30 min, at 37°C.
Initially, as a quick screen, a fluorogenic enzyme assay was performed on CF Sol samples, using the elastase fluorogenic substrate MeO-Succinyl-Ala-Ala-Pro-Val-NHMec, the results of one such experiment (performed on sample 26w) is recorded in Figure 7C.

CC(C)N(CC(=O)NCC(=O)NCC(=O)NCCCOCCOCCOCCCNC(=O)CCCCC1SCC2NC(=O)NC21)C(=O)ON1C(=O)CCC1=O (stereo not drawn) [NAP800, Succinimidoyl-CO-NVal-Gly-Gly-PEG-Biotin]
Ki ([1]; MeO-Succinyl-Ala-Ala-Pro-Val-NHMec 50 μM, PBS pH 7.4, 37°C, mean ± SD (n=2)): 6 µM | k 3 ([1]; first-order rate constant, PBS pH 7.4, 37°C, mean ± SD (n=2)): 0.38(± 0.06) min^−1 | second-order rate constant (k 3/K i) relative to the analogous valine diphenyl phosphonate QUBEL1 ([1]; fold greater than QUBEL1): approximately five-fold | k 3 / K i ([1]; second-order rate constant of inactivation, PBS pH 7.4, 37°C, mean ± SD (n=2)): 6.41 × 10^4 M^−1 min^−1 and 6.4 (± 0.57) × 10^4 M^−1 min^−1 | blockade of MeO-Succinyl-Ala-Ala-Pro-Val-NHMec cleavage in CF Sol [2]: progressive and ultimately complete blockade of substrate cleavage
